Experimental data: patent US5281604A, “Angiotensin II receptor blocking 2,3,6-substituted quinazolinones” (American Cyanamid Company, priority 1993, dated 1994)
“And” between values parts separate entries of the source, which are not always exact repeats. Equal values may be shown once.

System: ANGIOTENSIN II (AII) VASOPRESSOR RESPONSE
Experiment: AII Challenge: blockade of the angiotensin II vasopressor response in conscious spontaneously hypertensive rats
Assay type: in vivo, rat (Male Okamoto-Aoki SHR)
Excerpt: By administering a compound of this invention to a rat, and then challenging with angiotensin II, a blockage of the vasopressor response is realized.
Conscious Male Okamoto-Aoki SHR, 16-20 weeks old, weighing approximately 330 g are purchased from Charles River Labs (Wilmington, Mass.). Conscious rats are restrained in a supine position with elastic tape. The area at the base of the tail is locally anesthetized by subcutaneous infiltration with 2% procaine. The ventral caudal artery and vein are isolated, and a cannula made of polyethylene (PE) 10-20 tubing (fused together by heat) is passed into the lower abdominal aorta and vena cava, respectively. The cannula is secured, heparinized (1,000 I.U./ml), sealed and the wound is closed. The animals are placed in plastic restraining cages in an upright position. The cannula is attached to a Statham P23Db pressure transducer, and pulsatile blood pressure is recorded to 10-15 minutes with a Gould Brush recorder. (Chan et al., (Drug Development Res., 18:75-94, 1989).
Angiotensin II (human sequence, Sigma Chem. Co., St. Louis, Mo.) of 0.05 and 0.1 ug/kg i.v. is injected into all rats (predosing response). Then a test compound, vehicle or a known angiotensin II antagonist is administered i.v., i.p. or orally to each set of rats. The two doses of angiotensin II are given to each rat again at 30, 60, 90, 120, 180, 240 and 300 minutes post dosing the compound or vehicle. The vasopressor response of angiotensin II is measured for the increase in systolic blood pressure in mmHg. The percentage of antagonism or blockade of the vasopressor response of angiotensin II by a compound is calculated using the vasopressor response (increase in systolic blood pressure) of angiotensin II of each rat predosing the compound as 100%. A compound is considered active if at 30 mg/kg i.v. it antagonized at least 50% of the response.

[1] = 1 mg/kg i.v., AII 0.05 mcg/kg IV, 30 min post dose
[2] = 1 mg/kg i.v., AII 0.1 mcg/kg IV, 30 min post dose
[3] = 29 mg/kg i.v., AII 0.05 mcg/kg IV, 60 min post dose
[4] = 29 mg/kg i.v., AII 0.05 mcg/kg IV, 90 min post dose
[5] = 29 mg/kg i.v., AII 0.05 mcg/kg IV, 120 min post dose
[6] = 29 mg/kg i.v., AII 0.05 mcg/kg IV, 180 min post dose
[7] = 29 mg/kg i.v., AII 0.05 mcg/kg IV, 240 min post dose
[8] = 29 mg/kg i.v., AII 0.05 mcg/kg IV, 300 min post dose
[9] = 29 mg/kg i.v., AII 0.1 mcg/kg IV, 60 min post dose
[10] = 29 mg/kg i.v., AII 0.1 mcg/kg IV, 90 min post dose
[11] = 29 mg/kg i.v., AII 0.1 mcg/kg IV, 120 min post dose
[12] = 29 mg/kg i.v., AII 0.1 mcg/kg IV, 180 min post dose
[13] = 29 mg/kg i.v., AII 0.1 mcg/kg IV, 240 min post dose
[14] = 29 mg/kg i.v., AII 0.1 mcg/kg IV, 300 min post dose
[15] = 3 mg/kg i.v., AII 0.05 mcg/kg IV, 30 min post dose
[16] = 3 mg/kg i.v., AII 0.05 mcg/kg IV, 60 min post dose
[17] = 3 mg/kg i.v., AII 0.05 mcg/kg IV, 90 min post dose
[18] = 3 mg/kg i.v., AII 0.05 mcg/kg IV, 120 min post dose
[19] = 3 mg/kg i.v., AII 0.05 mcg/kg IV, 180 min post dose
[20] = 3 mg/kg i.v., AII 0.05 mcg/kg IV, 240 min post dose
[21] = 3 mg/kg i.v., AII 0.05 mcg/kg IV, 300 min post dose
[22] = 3 mg/kg i.v., AII 0.1 mcg/kg IV, 30 min post dose
[23] = 3 mg/kg i.v., AII 0.1 mcg/kg IV, 60 min post dose
[24] = 3 mg/kg i.v., AII 0.1 mcg/kg IV, 90 min post dose
[25] = 3 mg/kg i.v., AII 0.1 mcg/kg IV, 120 min post dose
[26] = 3 mg/kg i.v., AII 0.1 mcg/kg IV, 180 min post dose
[27] = 3 mg/kg i.v., AII 0.1 mcg/kg IV, 240 min post dose
[28] = 3 mg/kg i.v., AII 0.1 mcg/kg IV, 300 min post dose

CCCCc1nc2ccc(C3CC4C(O3)ON(c3ccccc3)C4c3ccccc3)cc2c(=O)n1Cc1ccc(-c2ccccc2-c2nnn[nH]2)cc1 (stereo not drawn) [Example 10, (3α, 3aβ, 5β, 6aβ)-2-Butyl-6-(hexahydro-2,3-diphenylfuro[3,2-d]isoxazol-5-yl)-3-[[2'-(1H-tetrazol-5-yl)[1,1'-biphenyl]-4-yl]methyl]-4(3H)-quinazolinone]
% Inhibition [1]: 39%
Average Change [1]: 33.5 mmHg
Control Before AII (single rat) [1]: 248 mmHg and 230 mmHg
Response After AII (single rat) [1]: 290 mmHg and 255 mmHg
Response Change (single rat) [1]: 42 mmHg and 25 mmHg
% Inhibition [2]: 41%
Average Change [2]: 42.5 mmHg
Control Before AII (single rat) [2]: 250 mmHg and 220 mmHg
Response After AII (single rat) [2]: 295 mmHg and 260 mmHg
Response Change (single rat) [2]: 45 mmHg and 40 mmHg
% Inhibition [3]: 82%
Average Change [3]: 10 mmHg
Control Before AII (single rat) [3]: 265 mmHg and 235 mmHg
Response After AII (single rat) [3]: 270 mmHg and 250 mmHg
Response Change (single rat) [3]: 5 mmHg and 15 mmHg
% Inhibition [4]: 82%
Average Change [4]: 10 mmHg
Control Before AII (single rat) [4]: 235 mmHg and 230 mmHg
Response After AII (single rat) [4]: 250 mmHg and 235 mmHg
Response Change (single rat) [4]: 15 mmHg and 5 mmHg
% Inhibition [5]: 77%
Average Change [5]: 12.5 mmHg
Control Before AII (single rat) [5]: 210 mmHg and 240 mmHg
Response After AII (single rat) [5]: 225 mmHg and 250 mmHg
Response Change (single rat) [5]: 15 mmHg and 10 mmHg
% Inhibition [6]: 73%
Average Change [6]: 15 mmHg
Control Before AII (single rat) [6]: 215 mmHg and 220 mmHg
Response After AII (single rat) [6]: 235 mmHg and 230 mmHg
Response Change (single rat) [6]: 20 mmHg and 10 mmHg
% Inhibition [7]: 82%
Average Change [7]: 10 mmHg
Control Before AII (single rat) [7]: 220 mmHg and 215 mmHg
Response After AII (single rat) [7]: 235 mmHg and 220 mmHg
Response Change (single rat) [7]: 15 mmHg and 5 mmHg
% Inhibition [8]: 73%
Average Change [8]: 15 mmHg
Control Before AII (single rat) [8]: 210 mmHg and 200 mmHg
Response After AII (single rat) [8]: 220 mmHg
Response Change (single rat) [8]: 10 mmHg and 20 mmHg
% Inhibition [9]: 86%
Average Change [9]: 10 mmHg
Control Before AII (single rat) [9]: 265 mmHg and 230 mmHg
Response After AII (single rat) [9]: 270 mmHg and 245 mmHg
Response Change (single rat) [9]: 5 mmHg and 15 mmHg
% Inhibition [10]: 72%
Average Change [10]: 20 mmHg
Control Before AII (single rat) [10]: 230 mmHg and 235 mmHg
Response After AII (single rat) [10]: 250 mmHg and 255 mmHg
Response Change (single rat) [10]: 20 mmHg
% Inhibition [11]: 65%
Average Change [11]: 25 mmHg
Control Before AII (single rat) [11]: 200 mmHg and 215 mmHg
Response After AII (single rat) [11]: 230 mmHg and 235 mmHg
Response Change (single rat) [11]: 30 mmHg and 20 mmHg
% Inhibition [12]: 79%
Average Change [12]: 15 mmHg
Control Before AII (single rat) [12]: 210 mmHg and 220 mmHg
Response After AII (single rat) [12]: 225 mmHg and 235 mmHg
Response Change (single rat) [12]: 15 mmHg
% Inhibition [13]: 79%
Average Change [13]: 15 mmHg
Control Before AII (single rat) [13]: 215 mmHg
Response After AII (single rat) [13]: 235 mmHg and 225 mmHg
Response Change (single rat) [13]: 20 mmHg and 10 mmHg
% Inhibition [14]: 79%
Average Change [14]: 15 mmHg
Control Before AII (single rat) [14]: 210 mmHg
Response After AII (single rat) [14]: 230 mmHg and 220 mmHg
Response Change (single rat) [14]: 20 mmHg and 10 mmHg

CCCCc1nc2ccc(C3CC4C(O3)ON3C4CCC3(C)C)cc2c(=O)n1Cc1ccc(-c2ccccc2-c2nnn[nH]2)cc1 (centres unmarked) [Example 14]
% Inhibition [15]: 79%
Average Change [15]: 7.5 mmHg
Control Before AII (single rat) [15]: 225 mmHg and 240 mmHg
Response After AII (single rat) [15]: 225 mmHg and 250 mmHg
Response Change (single rat) [15]: 0 mmHg and 15 mmHg
% Inhibition [16]: 64%
Average Change [16]: 12.5 mmHg
Control Before AII (single rat) [16]: 225 mmHg and 240 mmHg
Response After AII (single rat) [16]: 235 mmHg and 255 mmHg
Response Change (single rat) [16]: 10 mmHg and 15 mmHg
% Inhibition [17]: 74%
Average Change [17]: 9 mmHg
Control Before AII (single rat) [17]: 225 mmHg and 237 mmHg
Response After AII (single rat) [17]: 235 mmHg and 245 mmHg
Response Change (single rat) [17]: 10 mmHg and 8 mmHg
% Inhibition [18]: 76%
Average Change [18]: 8.5 mmHg
Control Before AII (single rat) [18]: 210 mmHg and 230 mmHg
Response After AII (single rat) [18]: 215 mmHg and 242 mmHg
Response Change (single rat) [18]: 5 mmHg and 12 mmHg
% Inhibition [19]: 76%
Average Change [19]: 8.5 mmHg
Control Before AII (single rat) [19]: 215 mmHg and 230 mmHg
Response After AII (single rat) [19]: 225 mmHg and 237 mmHg
Response Change (single rat) [19]: 10 mmHg and 7 mmHg
% Inhibition [20]: 71%
Average Change [20]: 10 mmHg
Control Before AII (single rat) [20]: 205 mmHg and 230 mmHg
Response After AII (single rat) [20]: 215 mmHg and 240 mmHg
Response Change (single rat) [20]: 10 mmHg
% Inhibition [21]: 74%
Average Change [21]: 9 mmHg
Control Before AII (single rat) [21]: 220 mmHg and 235 mmHg
Response After AII (single rat) [21]: 228 mmHg and 245 mmHg
Response Change (single rat) [21]: 8 mmHg and 10 mmHg
% Inhibition [22]: 56%
Average Change [22]: 17.5 mmHg
Control Before AII (single rat) [22]: 230 mmHg and 245 mmHg
Response After AII (single rat) [22]: 240 mmHg and 270 mmHg
Response Change (single rat) [22]: 10 mmHg and 25 mmHg
% Inhibition [23]: 56%
Average Change [23]: 17.5 mmHg
Control Before AII (single rat) [23]: 215 mmHg and 245 mmHg
Response After AII (single rat) [23]: 235 mmHg and 260 mmHg
Response Change (single rat) [23]: 20 mmHg and 15 mmHg
% Inhibition [24]: 60%
Average Change [24]: 16 mmHg
Control Before AII (single rat) [24]: 220 mmHg and 240 mmHg
Response After AII (single rat) [24]: 235 mmHg and 257 mmHg
Response Change (single rat) [24]: 15 mmHg and 17 mmHg
% Inhibition [25]: 63%
Average Change [25]: 15 mmHg
Control Before AII (single rat) [25]: 215 mmHg and 230 mmHg
Response After AII (single rat) [25]: 230 mmHg and 245 mmHg
Response Change (single rat) [25]: 15 mmHg
% Inhibition [26]: 69%
Average Change [26]: 12.5 mmHg
Control Before AII (single rat) [26]: 215 mmHg and 230 mmHg
Response After AII (single rat) [26]: 225 mmHg and 245 mmHg
Response Change (single rat) [26]: 10 mmHg and 15 mmHg
% Inhibition [27]: 56%
Average Change [27]: 17.5 mmHg
Control Before AII (single rat) [27]: 215 mmHg and 225 mmHg
Response After AII (single rat) [27]: 230 mmHg and 245 mmHg
Response Change (single rat) [27]: 15 mmHg and 20 mmHg
% Inhibition [28]: 46%
Average Change [28]: 21.5 mmHg
Control Before AII (single rat) [28]: 215 mmHg and 235 mmHg
Response After AII (single rat) [28]: 233 mmHg and 260 mmHg
Response Change (single rat) [28]: 18 mmHg and 25 mmHg
